Reference: article PMC6662923 (Chemical research in toxicology, 2018)

Key:
Lethality assay in mice = conditions: male, Swiss Webster, mouse, in vivo, iv
mice = tested on: mice; parameters: unit not given beside the values; conditions: literature value for LD50 in mice, ref not given; cited from earlier work
[1] = human liver microsomes, 2 h incubation; cited from earlier work
male Swiss Webster mice = assay: Lethality assay in mice; conditions: for Time of most overdose events after drug exposure: bolus iv injection
[2] = ref Table S4; cited from earlier work
[3] = post-mortem toxicology reports; cited from earlier work
murine μ-OR = conditions: cited from earlier work

Compound | LD50 at 24 h (Lethality assay in mice) | LD50 iv, literature value (mice) | Conversion to mitragynine [1] | Time of most overdose events after drug exposure (male Swiss Webster mice) | Observations after oral dosing (male Swiss Webster mice; oral, no deaths observed) | Solubility in aqueous solution [2] | Reported urine concentrations in overdose deaths involving Kratom [3] | LD50 oral (male Swiss Webster mice; oral, doses given in mg/kg) | Mode of binding at the murine μ-OR (murine μ-OR)
CC(=O)Oc1ccc2c3c1O[C@H]1[C@@H](OC(C)=O)C=C[C@H]4[C@@H](C2)N(C)CC[C@@]341 [heroin] | 23.7 mg/kg | 21.8 |  |  |  |  |  |  | 
CC[C@@H]1CN2CC[C@@]3(O)C(=Nc4cccc(OC)c43)[C@@H]2C[C@@H]1/C(=C\OC)C(=O)OC [7-hydroxymitragynine, 7-Hydroxymitragynine] |  |  | 45% | ≤ 10 min | severe respiratory depression and seizures were observed | low solubility |  |  | 
mitragynine |  |  |  | ≤ 10 min |  | low solubility | 0.167 to 1.2 µg/mL | 547.7 | competitive antagonist
